Data taken from the CheMixHub ionic liquid set.
Values joined by “and” are separate entries in the source; they are usually repeats but may differ in a detail not shown here. Identical values can stand only once.

Assay: xn = mol fraction of the nth substance listed

CCCCCC[n+]1ccn(C)c1.O=[N+]([O-])[O-] + CCCCCCCO
Settings | viscosity [mPa·s]
293.15 K, 100 kPa, x1 = 0.4392 | 100.5

CCCC[n+]1ccn(C)c1.O=[N+]([O-])[O-] + CCCCCCCO
viscosity [mPa·s], 100 kPa
Settings | 293.15 K | 303.15 K | 313.15 K | 323.15 K
x1 = 0.0824 | 7.76 | 5.5 | 3.98 | 2.87
x1 = 0.1625 | 8.67 | 6.03 | 4.34 | 3.03
x1 = 0.2317 | 9.68 | 6.61 | 4.7 | 3.23
x1 = 0.3446 | 11.46 | 7.53 | 5.37 | 3.67
x1 = 0.4317 | 13.2 | 8.53 | 5.96 | 4.12
x1 = 0.5762 | 18.7 | 11.56 | 7.74 | 5.01
x1 = 0.6416 | 24.3 | 14.4 | 9.06 | 5.69
x1 = 0.7334 | 41.3 | 22.6 | 14 | 8.49
x1 = 0.8418 | 82.4 | 43 | 26.4 | 15.8
x1 = 0.9327 | 146 | 77.8 | 47.8 | 28.1
x1 = 1 | 224 | 125 | 75.1 | 45.2

CCCC[n+]1ccn(C)c1.O=[N+]([O-])[O-] + CCCCCCO
viscosity [mPa·s], 100 kPa
Settings | 293.15 K | 303.15 K | 313.15 K | 323.15 K
x1 = 0.0811 | 6.41 | 4.47 | 3.24 | 2.45
x1 = 0.1741 | 7.98 | 5.21 | 3.72 | 2.75
x1 = 0.2418 | 9.59 | 6.02 | 4.21 | 3.02
x1 = 0.3587 | 13.3 | 8.24 | 5.33 | 3.63
x1 = 0.4426 | 17.5 | 10.69 | 6.48 | 4.22
x1 = 0.5532 | 26.6 | 15.4 | 8.94 | 5.49
x1 = 0.6538 | 40.2 | 23 | 12.8 | 7.56
x1 = 0.7414 | 60.7 | 33.8 | 18.9 | 10.83
x1 = 0.8519 | 103.2 | 58.4 | 33.4 | 18.5
x1 = 0.9367 | 162 | 90.8 | 53.2 | 30.6
x1 = 1 | 224 | 125 | 75.1 | 45.2

CCOS(=O)(=O)[O-].CC[n+]1ccn(C)c1 + CCCCCCO
100 kPa
Settings | viscosity [mPa·s]
288.15 K, x1 = 1 | 155.5
293.15 K, x1 = 0.1016 | 7.885
303.15 K, x1 = 0.5956 | 27.85
323.15 K, x1 = 0.4975 | 11.85

CCCC[n+]1ccn(C)c1.O=[N+]([O-])[O-] + CCCCCO
100 kPa
Settings | viscosity [mPa·s]
293.15 K, x1 = 0.4363 | 18.2
293.15 K, x1 = 0.5668 | 29.3
293.15 K, x1 = 0.7481 | 61
313.15 K, x1 = 0.6481 | 18.9
313.15 K, x1 = 0.8416 | 38.7
313.15 K, x1 = 0.9415 | 57.5
323.15 K, x1 = 0.0824 | 2.22
323.15 K, x1 = 0.9415 | 35.5

CCCC[n+]1ccn(C)c1.O=[N+]([O-])[O-] + CCCCO
101 kPa
Settings | viscosity [mPa·s]
283.15 K, x2 = 0.456 | 47.92
288.15 K, x2 = 0.26 | 94.8
288.15 K, x2 = 0.565 | 23.86
293.15 K, x2 = 0.565 | 19.88
293.15 K, x2 = 0.848 | 5.88
298.15 K, x2 = 0.129 | 97
298.15 K, x2 = 0.456 | 25.72
298.15 K, x2 = 0.565 | 16.79
303.15 K, x2 = 0.26 | 43.31
303.15 K, x2 = 0.565 | 14.34
308.15 K, x2 = 0.129 | 56.32
308.15 K, x2 = 0.26 | 35.31
308.15 K, x2 = 0.65 | 8.91
308.15 K, x2 = 0.753 | 5.59
313.15 K, x2 = 0.361 | 21.55
313.15 K, x2 = 0.565 | 10.76
313.15 K, x2 = 0.65 | 7.8
313.15 K, x2 = 0.753 | 4.91
318.15 K, x2 = 0.26 | 24.53
318.15 K, x2 = 0.565 | 9.44
323.15 K, x2 = 0.361 | 15.85
323.15 K, x2 = 0.753 | 3.92
333.15 K, x2 = 0.361 | 12.03
333.15 K, x2 = 0.565 | 6.56

CC[n+]1ccn(CCOC)c1.N#C[S-] + CCCCO
viscosity [mPa·s], 100 kPa
Settings | x1 = 0.1 | x1 = 0.1999 | x1 = 0.2996 | x1 = 0.4001 | x1 = 0.4996 | x1 = 0.5995 | x1 = 0.6979 | x1 = 0.7993 | x1 = 0.9 | x1 = 1
288.15 K | 4.85 | 6.76 | 9.62 | 13.89 | 20 | 27.4 | 40.1 | 53 | 72 | 93.1
293.15 K | 4.22 | 5.84 | 8.21 | 11.73 | 16.88 | 22.5 | 32.3 | 42.1 | 56.5 | 70.8
298.15 K | 3.73 | 5.1 | 7.11 | 10.04 | 14.26 | 19 | 26.4 | 34.1 | 44.9 | 55.8
303.15 K | 3.3 | 4.49 | 6.22 | 8.68 | 12.18 | 16.18 | 22 | 28 | 36.4 | 44.3
308.15 K | 2.93 | 4.01 | 5.48 | 7.57 | 10.46 | 13.82 | 18.7 | 23.4 | 30 | 36
313.15 K | 2.62 | 3.57 | 4.86 | 6.66 | 9.07 | 11.91 | 16.06 | 19.9 | 25.1 | 29.7
318.15 K | 2.35 | 3.21 | 4.34 | 5.9 | 7.94 | 10.35 | 13.87 | 17.27 | 21.3 | 24.9

CCCCCCCC[n+]1ccccc1.O=S(=O)([N-]S(=O)(=O)C(F)(F)F)C(F)(F)F + CCCCOC(C)=O
Settings | electrical conductivity [S/m]
298.15 K, 100 kPa, x2 = 0.6824 | 0.371

CC(=O)[O-].Cn1cc[nH+]c1 + CCCC[N+]1(C)CCCC1.O=S(=O)([N-]S(=O)(=O)C(F)(F)F)C(F)(F)F
298.15 K, 100 kPa
Settings | viscosity [mPa·s]
x1 = 0.19 | 52.7
x1 = 0.5 | 26.9
x1 = 1 | 6.22

OC[C@H]1O[C@@H](O[C@H]2[C@H](O)[C@@H](O)[C@@H](O)O[C@@H]2CO)[C@H](O)[C@@H](O)[C@H]1O + CCCC[N+](C)(CCCC)CCCC.[Cl-] + O
viscosity, 100 kPa
Settings | 293.15 K | 298.15 K | 303.15 K | 308.15 K | 313.15 K
x1 = 0.0003513, x2 = 0 | 1.018 mPa·s | 0.904 mPa·s | 0.804 mPa·s | 0.725 mPa·s | 0.658 mPa·s
x1 = 0.0003543, x2 = 0.000702 | 1.043 mPa·s | 0.929 mPa·s | 0.828 mPa·s | 0.745 mPa·s | 0.679 mPa·s
x1 = 0.0003546, x2 = 0.0003601 | 1.027 mPa·s | 0.917 mPa·s | 0.819 mPa·s | 0.735 mPa·s | 0.667 mPa·s
x1 = 0.0003558, x2 = 0.001062 | 1.057 mPa·s | 0.948 mPa·s | 0.843 mPa·s | 0.757 mPa·s | 0.696 mPa·s
x1 = 0.0003573, x2 = 0.001421 | 1.069 mPa·s | 0.961 mPa·s | 0.856 mPa·s | 0.77 mPa·s | 0.706 mPa·s
x1 = 0.0007059, x2 = 0 | 1.038 mPa·s | 0.919 mPa·s | 0.812 mPa·s | 0.731 mPa·s | 0.662 mPa·s
x1 = 0.000709, x2 = 0.00036 | 1.049 mPa·s | 0.937 mPa·s | 0.834 mPa·s | 0.747 mPa·s | 0.673 mPa·s
x1 = 0.0007119, x2 = 0.0007018 | 1.067 mPa·s | 0.948 mPa·s | 0.843 mPa·s | 0.758 mPa·s | 0.689 mPa·s
x1 = 0.0007149, x2 = 0.001061 | 1.081 mPa·s | 0.969 mPa·s | 0.86 mPa·s | 0.771 mPa·s | 0.708 mPa·s
x1 = 0.000718, x2 = 0.001421 | 1.094 mPa·s | 0.984 mPa·s | 0.876 mPa·s | 0.785 mPa·s | 0.72 mPa·s
x1 = 0.001058, x2 = 0 | 1.059 mPa·s | 0.936 mPa·s | 0.827 mPa·s | 0.741 mPa·s | 0.671 mPa·s
x1 = 0.001063, x2 = 0.0003599 | 1.07 mPa·s | 0.952 mPa·s | 0.848 mPa·s | 0.758 mPa·s | 0.681 mPa·s
x1 = 0.001067, x2 = 0.0007015 | 1.088 mPa·s | 0.966 mPa·s | 0.857 mPa·s | 0.77 mPa·s | 0.698 mPa·s
x1 = 0.001072, x2 = 0.001061 | 1.106 mPa·s | 0.989 mPa·s | 0.877 mPa·s | 0.785 mPa·s | 0.72 mPa·s
x1 = 0.001077, x2 = 0.00142 | 1.118 mPa·s | 1.003 mPa·s | 0.891 mPa·s | 0.799 mPa·s | 0.733 mPa·s
x1 = 0.001413, x2 = 0 | 1.079 mPa·s | 0.955 mPa·s | 0.843 mPa·s | 0.752 mPa·s | 0.68 mPa·s
x1 = 0.001419, x2 = 0.0003598 | 1.093 mPa·s | 0.971 mPa·s | 0.86 mPa·s | 0.77 mPa·s | 0.694 mPa·s
x1 = 0.001425, x2 = 0.0007013 | 1.11 mPa·s | 0.986 mPa·s | 0.872 mPa·s | 0.784 mPa·s | 0.709 mPa·s
x1 = 0.001431, x2 = 0.001061 | 1.127 mPa·s | 1.006 mPa·s | 0.893 mPa·s | 0.8 mPa·s | 0.734 mPa·s
x1 = 0.001437, x2 = 0.00142 | – | 1.14 mPa·s | 1.02 mPa·s | 0.909 mPa·s | 0.747 mPa·s and 0.816 mPa·s
x1 = 0.001765, x2 = 0 | 1.097 mPa·s | 0.971 mPa·s | 0.858 mPa·s | 0.764 mPa·s | 0.689 mPa·s
x1 = 0.001774, x2 = 0.0003596 | 1.118 mPa·s | 0.987 mPa·s | 0.879 mPa·s | 0.783 mPa·s | 0.705 mPa·s
x1 = 0.00178, x2 = 0.000701 | 1.133 mPa·s | 1.003 mPa·s | 0.889 mPa·s | 0.797 mPa·s | 0.719 mPa·s
x1 = 0.001787, x2 = 0.00106 | 1.15 mPa·s | 1.024 mPa·s | 0.909 mPa·s | 0.814 mPa·s | 0.745 mPa·s
x1 = 0.001795, x2 = 0.001419 | – | 1.164 mPa·s | 1.038 mPa·s | 0.923 mPa·s | 0.76 mPa·s and 0.829 mPa·s

O=C(O)CCl + CCCC[N+](CCCC)(CCCC)CCCC.O=S(=O)([O-])O
100 kPa
Settings | electrical conductivity, 303.15 K [S/m] | electrical conductivity, 308.15 K [S/m] | electrical conductivity, 313.15 K [S/m] | electrical conductivity, 333.15 K [S/m] | viscosity, 313.15 K [mPa·s] | viscosity, 333.15 K [mPa·s]
x2 = 0.333 | 0.027 | 0.0376 | – | – | – | –
x2 = 0.5 | – | – | 0.01 | 0.0382 | 1123 | 294.2

CNC(C)=O + CCCC[n+]1ccn(C)c1.F[B-](F)(F)F
101 kPa
Settings | viscosity [mPa·s]
293.15 K, x2 = 0.0711 | 6.4
293.15 K, x2 = 0.1409 | 7.42
293.15 K, x2 = 0.4343 | 19.1
293.15 K, x2 = 0.7774 | 65.8
298.15 K, x2 = 0.0711 | 5.41
298.15 K, x2 = 0.2042 | 7.19
298.15 K, x2 = 0.4992 | 19.7
298.15 K, x2 = 0.7774 | 51.7
303.15 K, x2 = 0.1409 | 5.66
308.15 K, x2 = 0 | 3.53
308.15 K, x2 = 0.714 | 24.7
313.15 K, x2 = 0.4992 | 9.8
318.15 K, x2 = 0.0711 | 3.3
318.15 K, x2 = 0.1409 | 3.74
